Measurements published in patent US11357774B2, “Use of a quinoline sulfonyl compound for treatment of inflammation, inflammatory disorders, autoimmune disorders and malaria” (priority 2019, dated 2022).

How the values were obtained:
PBMC cells = experiment: Sulforhodamine B (SRB) assay, IC50 on PBMC; assay type: cell-based, human
Method: (§1) The sulforhodamine B (SRB) assay^21 was used to determine the drug concentration that half of the cell growth/viability is inhibited (IC50). Cells were cultured in 96-well plates, with 5,000 cells in 100 μL of culture medium per well. The rest of the protocol was the same as described previously^22,23.
(§2) Data shown in Table 1 are IC50 values of VR23 and other compounds, which were determined using sulforhodamine B (SRB) assays on immunologically relevant cells (THP-1, SW-982 and PBMC). […] Two well-known proteasome inhibitors, BTZ and CFZ, were included for comparison since VR23 is also a proteasome inhibitor, albeit targeting different subunits^2. The widely used anti-inflammatory DEX was included, also for comparison.
(§3) THP-1, SW982 and PBMC cells (5,000 cells/well) were treated with each compound for 48 hours. The IC50, the drug concentration reducing cell growth/viability by 50%, was determined by a dose-response four-parameter curve (generated with GraphPad Prism V. 4.02) formed by 10 two-fold dilutions (n=3).

HFLS-RA cell migration = experiment: Cell migration assay (matrigel invasion chamber), HFLS-RA; assay type: cell-based, human; settings: 24 hours, 5 μM or 10 μM
Method: (§4) The values presented are the mean±SEM (n=2).
Cell migration assays were performed with Corning invasion chambers with Matrigel matrix (Fisher Scientific). The lower chamber contained compounds (e.g., VR23 or HCQ) and FBS as a chemo-attractant. The upper chamber was loaded with cells in FBS-free medium. The analysis of the trans-well inserts were carried out as described previously^24. After 24 hours of incubation, the trans-well inserts were removed, and then the remaining media and cells on the upper chamber were also removed from the top of the membrane with a cotton swab. The trans-well inserts were placed into wells containing 1 mL of 70% ethanol for 10 minutes to fix the cells. The residual ethanol was carefully removed with a cotton swab. Cells on the trans-well insert membrane were then air-dried at room temperature for 15 minutes. The trans-well insert containing cells were placed in 1 mL of 0.2% crystal violet for 10 minutes to stain. The excessive crystal violet was carefully removed from the membrane with a cotton swab. Subsequently, cells on the trans-well membrane were air-dried at room temperature prior to analysis under an inverted microscope. Images (10×) were captured at 5 different fields. The average number of cells that migrated through the membrane towards the chemo-attractant were determined. […]

[1] = test system: SW-982 synovial cell line; experiment: Sulforhodamine B (SRB) assay, IC50 on SW-982 cells; assay type: cell-based; settings: Homo sapiens, SW982, 48 h
Method: as §1, §2, §3

[2] = test system: cancer over non-cancer cells; settings: in vitro studies; cited from earlier work
[3] = test system: IL-6 and TNF-α secretion in human PBMC; experiment: IL-6 and TNF-α in PHA-p-stimulated human PBMC (ELISA); assay type: cell-based; settings: PHA-p 10 μg/mL, 6 hours
Method: as §4
(§5) The enzyme-linked immunosorbent assay (ELISA) is a quantitative measurement based on sandwich-based enzyme linking, using a protein-specific capture antibody to determine the levels of single or multiple chemokines and cytokines.
Data in FIG. 14 show the levels of IL-6 (upper plot) and TNF-α (lower plot) in human PBMC (1×10^6/mL cells) stimulated with 10 μg/mL phytohemagglutinin-p (PHA-p) (10 μg/mL) for 6 hours, in the absence (control) or presence of varying concentrations of VR23 (0.38, 0.75, 1.5, 3 or 6 μM) or BTZ (6.25, 12.5, 25 or 50 nM). The measurement was carried out with a single-analyte ELISA.

THP-1 monocytic cells = experiment: Sulforhodamine B (SRB) assay, IC50 on THP-1 cells; assay type: cell-based, human
Method: as §1, §2, §3

[4] = test system: BALB/c mice with ALI caused by LPS; experiment: LPS-induced acute lung injury in mice, bronchoalveolar fluid cell counts and TNF-α; assay type: in vivo, mouse; settings: 24 hours, VR23 30 mg/kg intraperitoneally
From the text: as §5
Six to eight week old female BALB/c mice strain 028 (Charles River Laboratories, QC, Canada) were fed regularly with laboratory chow and water upon arrival at the Laurentian University Animal Care Facility (Sudbury, ON, Canada). To determine a useful dose of LPS, three mice per group were treated for 24 hours with the following three different conditions: (i) no LPS, (ii) 0.25 mg of LPS per kg of body weight, and (iii) 0.50 mg of LPS per kg of body weight. […] After the animals were sacrificed, the bronchoalveolar lavage fluid (BALF) of each mouse was collected and analyzed for LPS-induced inflammatory responses. […] Bronchoalveolar lavage fluid was collected and the number of cells infiltrated into the bronchoalveolar fluid were counted (FIG. 2). […]
Toward this goal, a useful LPS dose to induce TNF-α in the mouse bronchoalveolar fluid was first obtained. […] To illustrate the anti-inflammatory property of VR23, the level of TNF-α in the BALF was measured at 24-hour post-treatment. […] The levels of TNF-α were determined at 24-hour post-LPS stimulation (0.4 mg/kg), in the absence (controls) or presence of DEX (4 mg/kg) or VR23 (30 mg/kg).

O=[N+]([O-])c1ccc(S(=O)(=O)N2CCN(c3ccnc4cc(Cl)ccc34)CC2)c([N+](=O)[O-])c1 [VR23, 7-chloro-4-(4-(2,4-dinitrophenylsulfonyl)piperazin-1-yl)quinoline]
IC50 (PBMC cells; 48 hours): 3140 ± 260 nM | IC50 (PBMC cells; Homo sapiens, 48 h): 3000 nM | cell migration promoted by 10% FBS (HFLS-RA cell migration): completely prevents cell migration | IC50 [1]: 4330 ± 700 nM | selectivity of cell killing [2]: preferentially kills cancer over non-cancer cells | PHA-induced IL-6 ([3]; VR23 1.5 μM, BTZ 6 nM): completely prevented | PHA-induced TNF-α ([3]; VR23 3.0 μM, BTZ 4× the IC50 dose): completely prevented | cytokine secretion (IL-6, TNF-α), dose dependence ([3]; VR23 0.38-6 μM): decreases in a dose dependent manner | IC50 (THP-1 monocytic cells; 48 hours): 2580 ± 500 nM | IC50 (THP-1 monocytic cells; Homo sapiens, THP-1, 48 h): 3000 nM | total number of cells recruited into the bronchoalveolar space ([4]; LPS 0.4 mg/kg intranasally): completely prevented | level of TNF-α in bronchoalveolar lavage fluid ([4]; LPS 0.4 mg/kg): effectively reduces the level of TNF-α
